In test [1] the test system is human brain microvascular endothelial cells. Description: Endothelial tube formation on Matrigel. It is filed as cell-based. To be noted: 200 nM; 6-hour time course. As for the experimental part:
Primary Human Brain Microvascular Endothelial Cells were purchased from Cell Systems (Kirkland, Wash.) and used at passages 3 through 6. Cells were maintained in EGM-2 MV media from Lonza (Walkersville, Md.) and stained with CellTracker™ Green CMFDA Dye from Invitrogen (Eugene, Oreg.) for fluorescent imaging. Tube formation assays were performed on Matrigel from Corning (Tewksbury, Mass.) in glass bottom 6-well plates from MatTek (Ashland, Mass.). Cells were plated at a density of 1.3×10^4 per cm^2 and imaged at the indicated times.

Test [2] has as its system 08-387 GSCs. Briefly: Wound assay, tubulin immunofluorescence. To be noted: 200 nM; 6 hours. It is filed as cell-based, human. Here is the method: Interphase enriched 08-387 GSCs were seeded within two-well culture inserts (ibidi, Verona, Wis.) at 2×10^5 cells per ml in triplicate (final volume of 80 μl per well) onto Geltrex coated glass bottom 6 well pates (MatTek Corp., Ashland, Mass.). After 2 hours, the insert was removed and cells were exposed to vehicle or 200 nM ispinesib. 6 hours later, cells were fixed and processed for immunofluorescence as described for atubulin. 20 Z-stack images at the wound edge were captured per condition using the 40× objective on a Leica DMI6000 inverted microscope. Images were then exported aa tif files using Velocity software (Mountain View, Calif.) and analyzed in ImageJ (NIH, Bethesda, Md.). Regions of interest were drawn for the primary cell layer at the wound edge for 3 independent scans per Z-stack representing the top, middle and bottom portion of the cell layer and pixel intensity and area measured.

The subject of test [3] is GSCs from patient derived xenograft 08-387. Briefly: Measurement of microtubule dynamics, EB1-EGFP. In kind it is cell-based, human. To be noted: 200 nM; 7 hours. Here is the method:
GSCs from patient derived xenograft 08-387 were cultured in Neurobasal Media, as previously described. Cells were plated on tissue culture dishes coated with GelTrex (Gibco®, Life Technologies, Carslbad, Calif.) and transfected with EB1-EGFP plasmid using FuGene® HD transfection reagent (Promega Corporation, Madison, Wis.) in a 3:1 (FuGene:DNA) ratio. Cells were transferred to GelTrex-coated 35 mm No. 1.5 glass MatTek dishes (MatTek Corporation, Ashland, Mass.) at a density of 50,000 cells per dish 48 hours following transfection, and allowed to adhere overnight prior to imaging. Dynamics measurements were obtained at 30 minutes and 7 hours following addition of vehicle (DMSO) or ispinesib (200 nM) to cell culture media.
Streaming time-lapse images of EB1-EGFP-expressing cells were acquired at 300 ms per frame for 1 minute (200 total frames) at using a Nikon TiE epifluorescence microscope (Nikon Instruments Inc., Melville, N.Y.) equipped with a Zyla 5.5 sCMOS camera (Andor Technology Ltd., Belfast, Ireland) under control of NIS Elements software (Nikon). Fluorescence illumination during imaging was provided by a SpectraX Light Engine® (Lumencor Inc., Beaverton, Oreg.) and a GFP/mCherry filter set (Chroma Technology Corp., Bellows Falls, Vt.). […]

Test [4] concerns the target T1, Eg5 (Homo sapiens, UniProt P52732).
T1 sequence (P52732 1-1056): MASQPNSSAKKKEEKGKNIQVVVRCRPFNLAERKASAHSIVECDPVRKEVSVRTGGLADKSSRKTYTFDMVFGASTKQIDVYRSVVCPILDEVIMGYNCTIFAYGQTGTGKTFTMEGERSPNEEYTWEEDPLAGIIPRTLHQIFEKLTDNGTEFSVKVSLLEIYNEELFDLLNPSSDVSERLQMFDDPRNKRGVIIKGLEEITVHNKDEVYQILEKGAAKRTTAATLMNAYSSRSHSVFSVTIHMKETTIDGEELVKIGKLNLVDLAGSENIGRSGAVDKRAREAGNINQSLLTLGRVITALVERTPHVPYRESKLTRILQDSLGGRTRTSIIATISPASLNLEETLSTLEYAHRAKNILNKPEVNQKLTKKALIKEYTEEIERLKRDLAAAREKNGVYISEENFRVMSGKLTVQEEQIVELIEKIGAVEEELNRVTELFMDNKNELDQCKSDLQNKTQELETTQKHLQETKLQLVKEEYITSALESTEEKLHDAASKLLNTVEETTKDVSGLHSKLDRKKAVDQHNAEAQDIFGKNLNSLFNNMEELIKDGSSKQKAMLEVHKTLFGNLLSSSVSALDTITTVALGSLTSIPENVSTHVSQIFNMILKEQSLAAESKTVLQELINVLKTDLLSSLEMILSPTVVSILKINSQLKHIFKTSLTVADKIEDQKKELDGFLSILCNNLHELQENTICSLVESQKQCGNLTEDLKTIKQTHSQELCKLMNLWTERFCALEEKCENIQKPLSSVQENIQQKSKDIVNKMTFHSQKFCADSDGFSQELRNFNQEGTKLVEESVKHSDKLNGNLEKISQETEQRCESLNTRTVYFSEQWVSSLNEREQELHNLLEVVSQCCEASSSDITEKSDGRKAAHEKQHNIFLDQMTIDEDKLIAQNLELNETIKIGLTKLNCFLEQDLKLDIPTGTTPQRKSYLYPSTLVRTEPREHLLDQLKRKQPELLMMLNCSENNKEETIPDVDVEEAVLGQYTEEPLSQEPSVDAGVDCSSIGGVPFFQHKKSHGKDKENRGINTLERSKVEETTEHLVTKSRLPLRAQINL
To be noted: cited from earlier work.

With `Cc1ccc(C(=O)N(CCCN)[C@@H](c2nc3cc(Cl)ccc3c(=O)n2Cc2ccccc2)C(C)C)cc1` [ispinesib, N-(3-amino-propyl)-n-[R-1-(3-benzyl-7-choloro-4-oxo-3,4-dihydroquinazolin-2-yl)-2-methyl-propyl]-4-methyl-benzamide methanesulfonate], the endothelial tube formation entry in test [1] is “failed to properly organize into tubes”. The “polymerized tubulin at wound edge” value in test [2] is given as “significant decrease in polymerized tubulin”. In test [3], the EB1 comet velocity entry is given as “significant increase” and the microtubule growth times result is “reduced microtubule growth times”. Besides, the “selectivity for Eg5 over other kinesins” value in test [4] is 40,000 times.

(Values after US20150352114A1, “MITOTIC KINESIN Eg5 INHIBITING ANTICANCER AGENTS” (THE CLEVELAND CLINIC FOUNDATION, priority 2014, published 2015).)
